# Literature values as cited in US11369498B2, “Stent and stent delivery system with improved deliverability” (MT Acquisition Holdings LLC, priority 2010, dated 2022).
# Settings: 25 C.
compound,measurement,value
[Cl-].[Na+] [NaCl],Water sol,35.7 g/100 g
